US20230064983A1 (priority 2020, published 2023)
Several values for one entry are separate records, joined by “and”; a condition that tells them apart may be missing. Equal entries are not always repeated.

Tests used:
[1] = target: T1, EGFR with insertion SVD between D770 and N771 (mutEGFR D770_N771insSVD) (Homo sapiens, UniProt P00533, DUP768-770); assay: Exon20-Mutant-EGFR(D770_N771insSVD) kinase assay (TR-FRET); assay type: biochemical; conditions: 2 mM ATP, Table 2
T1 construct: amino acids R669 to A1210; made in house; host or cells: Sf9 insect cells (baculovirus)
T1 sequence (P00533 other isoform, or with tags, fused parts or gaps DUP768-770): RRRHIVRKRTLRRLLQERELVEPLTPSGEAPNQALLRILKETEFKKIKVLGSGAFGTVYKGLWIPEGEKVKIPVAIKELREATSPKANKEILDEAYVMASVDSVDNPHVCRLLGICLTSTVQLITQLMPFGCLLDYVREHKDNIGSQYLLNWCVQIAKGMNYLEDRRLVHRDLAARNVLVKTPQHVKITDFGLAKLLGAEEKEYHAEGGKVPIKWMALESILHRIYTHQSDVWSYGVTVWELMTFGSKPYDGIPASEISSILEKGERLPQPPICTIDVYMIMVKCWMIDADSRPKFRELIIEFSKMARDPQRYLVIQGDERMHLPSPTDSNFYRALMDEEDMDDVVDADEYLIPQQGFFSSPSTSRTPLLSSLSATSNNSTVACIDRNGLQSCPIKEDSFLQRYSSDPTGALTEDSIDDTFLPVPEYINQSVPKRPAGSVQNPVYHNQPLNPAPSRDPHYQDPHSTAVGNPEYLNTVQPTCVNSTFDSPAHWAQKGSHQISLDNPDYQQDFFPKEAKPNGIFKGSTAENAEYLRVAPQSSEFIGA

[2] = target: T2, Bub1 (Homo sapiens, UniProt O43683); assay: Bub1 high ATP kinase assay (TR-FRET); assay type: biochemical; conditions: Bub1 high ATP (2 mM) IC50, TR-FRET, 2 mM ATP; Table 3
T2 construct: catalytic domain of human Bub1 (amino acids 704-1085); His6 (N); made in house; host or cells: insect cells (Hi5)
T2 sequence (O43683 704-1085): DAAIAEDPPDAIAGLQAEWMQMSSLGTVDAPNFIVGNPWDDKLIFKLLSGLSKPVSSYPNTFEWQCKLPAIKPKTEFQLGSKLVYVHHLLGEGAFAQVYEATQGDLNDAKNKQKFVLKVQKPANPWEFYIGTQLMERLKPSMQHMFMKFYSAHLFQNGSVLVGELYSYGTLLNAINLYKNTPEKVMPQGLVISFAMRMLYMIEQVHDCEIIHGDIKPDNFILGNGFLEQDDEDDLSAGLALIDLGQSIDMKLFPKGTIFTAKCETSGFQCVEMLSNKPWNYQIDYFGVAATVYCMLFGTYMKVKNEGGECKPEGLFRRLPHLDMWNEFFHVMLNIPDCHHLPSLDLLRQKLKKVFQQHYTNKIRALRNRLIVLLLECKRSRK
From the text: Bub1 high ATP Kinase Assay
Bub1-inhibitory activity of compounds of the present invention at a high ATP concentration was quantified employing the Bub1 TR-FRET high ATP kinase assay as described in the following paragraphs.
N-terminally His6-tagged recombinant catalytic domain of human Bub1 (amino acids 704-1085), expressed in insect cells (Hi5) and purified by Ni-NTA affinity chromatography and subsequent size exclusion chromatography, was used as enzyme. As substrate for the kinase reaction the biotinylated peptide biotin-Ahx-[…] (C-terminus in amid form) was used which can be purchased e.g. form the company Biosyntan (Berlin, Germany).
Then the kinase reaction was started by the addition of 2 μl of a solution of Bub1 in assay buffer and the resulting mixture was incubated for a reaction time of 60 min at 22° C. The concentration of Bub1 was adjusted depending of the activity of the enzyme lot and was chosen appropriate to have the assay in the linear range, a typical concentration is about 200 ng/ml. The reaction was stopped by the addition of 3 μl of a solution of TR-FRET detection reagents (0.167 μM streptavidine-XL665 [Cisbio Bioassays, Codolet, France] and 1.67 nM anti-phosho-Serine antibody [Merck Millipore, cat. #35-002] and 0.67 nM LANCE EU-W1024 labeled anti-mouse IgG antibody [Perkin-Elmer, product no. AD0077, as an alternative a Terbium-cryptate-labeled anti-mouse IgG antibody from Cisbio Bioassays can be used]) in an aqueous EDTA-solution (83.3 mM EDTA, 0.2% (w/v) bovine serum albumin in 100 mM HEPES pH 7.5).
The resulting mixture was incubated 1 h at 22° C. to allow the formation of complex between the phosphorylated biotinylated peptide and the detection reagents. Subsequently the amount of phosphorylated substrate was evaluated by measurement of the resonance energy transfer from the Eu-chelate to the streptavidine-XL. Therefore, the fluorescence emissions at 620 nm and 665 nm after excitation at 350 nm was measured in a TR-FRET reader, e.g. a Pherastar or Pherastar FS (both from BMG Labtechnologies, Offenburg, Germany) or a Viewlux (Perkin-Elmer). The ratio of the emissions at 665 nm and at 622 nm was taken as the measure for the amount of phosphorylated substrate.

[3] = target: Ba/F3-EGFR-D770_N771insSVD cells (Homo sapiens, UniProt P00533, DUP768-770, cells depend on it); assay: Ba/F3 cell survival assay, EGFR D770_N771insSVD; assay type: cell-based; conditions: Cell Titer-Glo, 48 h, without IL-3; Table 4; read-out: BA/F3 (insSVD) IC50
Sequence of Ba/F3-EGFR-D770_N771insSVD cells (P00533 with tags, fused parts or gaps DUP768-770): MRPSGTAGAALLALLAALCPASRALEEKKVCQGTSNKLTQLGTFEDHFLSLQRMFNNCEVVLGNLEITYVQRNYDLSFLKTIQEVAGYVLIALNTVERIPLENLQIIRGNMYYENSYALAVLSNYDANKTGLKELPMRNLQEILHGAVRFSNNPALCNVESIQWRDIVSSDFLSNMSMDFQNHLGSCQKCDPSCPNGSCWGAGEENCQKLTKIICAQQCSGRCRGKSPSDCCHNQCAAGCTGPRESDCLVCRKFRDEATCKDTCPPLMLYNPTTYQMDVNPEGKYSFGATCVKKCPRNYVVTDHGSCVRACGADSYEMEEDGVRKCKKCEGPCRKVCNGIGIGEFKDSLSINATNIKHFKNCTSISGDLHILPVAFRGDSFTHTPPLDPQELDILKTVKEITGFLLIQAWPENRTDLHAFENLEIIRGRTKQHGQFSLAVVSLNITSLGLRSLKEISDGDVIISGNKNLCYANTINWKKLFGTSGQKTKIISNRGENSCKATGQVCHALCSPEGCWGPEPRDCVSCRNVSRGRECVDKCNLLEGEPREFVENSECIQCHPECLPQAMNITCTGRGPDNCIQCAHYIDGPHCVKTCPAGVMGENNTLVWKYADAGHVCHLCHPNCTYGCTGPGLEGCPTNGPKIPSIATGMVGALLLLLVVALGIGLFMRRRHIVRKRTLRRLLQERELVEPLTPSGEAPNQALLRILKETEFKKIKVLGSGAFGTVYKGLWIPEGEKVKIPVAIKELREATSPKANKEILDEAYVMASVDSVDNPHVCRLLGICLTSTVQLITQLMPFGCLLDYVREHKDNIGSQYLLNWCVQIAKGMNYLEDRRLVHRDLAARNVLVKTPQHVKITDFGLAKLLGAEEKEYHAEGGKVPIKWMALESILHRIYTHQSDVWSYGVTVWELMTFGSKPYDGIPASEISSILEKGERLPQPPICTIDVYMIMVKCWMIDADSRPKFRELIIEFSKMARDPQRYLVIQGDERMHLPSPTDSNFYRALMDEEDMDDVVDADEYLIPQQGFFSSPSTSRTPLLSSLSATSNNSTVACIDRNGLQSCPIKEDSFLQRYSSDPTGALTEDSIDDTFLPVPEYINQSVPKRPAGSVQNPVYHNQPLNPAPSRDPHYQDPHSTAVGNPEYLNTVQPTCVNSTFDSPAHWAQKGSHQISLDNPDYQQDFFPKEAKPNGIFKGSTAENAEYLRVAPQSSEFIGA

[4] = target: Ba/F3-EGFR-WT cells (Homo sapiens, UniProt P00533); assay: Ba/F3 cell survival assay, wild type EGFR; assay type: cell-based; conditions: Cell Titer-Glo, 48 h, with 10 ng/mL EGF; Table 4; read-out: BA/F3 (wild type) IC50
Sequence of Ba/F3-EGFR-WT cells (P00533 whole entry, looked up, change not shown): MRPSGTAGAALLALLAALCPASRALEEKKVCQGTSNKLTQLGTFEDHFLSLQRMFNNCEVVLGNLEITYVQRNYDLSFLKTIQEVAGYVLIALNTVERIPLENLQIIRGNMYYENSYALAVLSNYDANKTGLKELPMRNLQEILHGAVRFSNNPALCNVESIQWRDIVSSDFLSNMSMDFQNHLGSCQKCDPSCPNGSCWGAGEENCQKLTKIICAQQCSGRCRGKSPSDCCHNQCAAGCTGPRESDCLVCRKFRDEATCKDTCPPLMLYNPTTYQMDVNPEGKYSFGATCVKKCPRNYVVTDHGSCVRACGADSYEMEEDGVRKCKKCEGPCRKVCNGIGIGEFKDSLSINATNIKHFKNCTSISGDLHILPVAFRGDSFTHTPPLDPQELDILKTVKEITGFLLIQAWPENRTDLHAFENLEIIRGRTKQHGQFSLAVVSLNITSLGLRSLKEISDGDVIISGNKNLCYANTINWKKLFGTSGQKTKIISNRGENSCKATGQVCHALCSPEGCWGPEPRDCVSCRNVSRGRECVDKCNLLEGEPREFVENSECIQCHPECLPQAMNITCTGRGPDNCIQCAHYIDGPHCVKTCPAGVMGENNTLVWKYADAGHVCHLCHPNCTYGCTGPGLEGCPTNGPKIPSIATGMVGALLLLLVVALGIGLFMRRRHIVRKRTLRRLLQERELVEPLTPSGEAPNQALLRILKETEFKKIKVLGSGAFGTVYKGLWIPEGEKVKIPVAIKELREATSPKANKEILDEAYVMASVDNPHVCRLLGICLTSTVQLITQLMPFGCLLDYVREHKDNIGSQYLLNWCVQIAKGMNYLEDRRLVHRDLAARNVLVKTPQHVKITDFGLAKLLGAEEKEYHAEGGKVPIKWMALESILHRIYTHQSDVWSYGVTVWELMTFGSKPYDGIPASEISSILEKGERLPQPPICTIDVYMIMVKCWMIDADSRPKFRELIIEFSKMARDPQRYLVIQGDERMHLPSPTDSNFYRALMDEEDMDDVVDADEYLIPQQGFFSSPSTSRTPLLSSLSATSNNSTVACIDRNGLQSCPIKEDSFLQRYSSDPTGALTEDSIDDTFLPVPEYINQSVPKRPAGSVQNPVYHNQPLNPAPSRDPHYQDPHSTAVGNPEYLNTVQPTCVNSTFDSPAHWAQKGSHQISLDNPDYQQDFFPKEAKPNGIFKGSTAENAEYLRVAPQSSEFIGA

| SMILES | mutEGFR (D770_N771insSVD) kinase assay IC50 [1] | IC50 [2] | GI50 [3] | GI50 [4] |
| --- | --- | --- | --- | --- |
| COc1c(Cl)cccc1Nc1c(-c2ccncc2OCC2(C)CCO2)[nH]c2c1C(=O)NCC2CCO (single isomer, unassigned) [Example 22, 3-(3-chloro-2-methoxyanilino)-7-(2-hydroxyethyl)-2-{3-[(2-methyloxetan-2-yl)methoxy]pyridin-4-yl}-1,5,6,7-tetrahydro-4H-pyrrolo[3,2-c]pyridin-4-one] | 0.66 nM | 11600 nM | 616 nM | 2630 nM |
| COc1c(Cl)cccc1Nc1c(-c2ccncc2OCC(C)(C)OC)[nH]c2c1C(=O)NCC2CCO (single isomer, unassigned) [Example 14, 3-(3-chloro-2-methoxyanilino)-7-(2-hydroxyethyl)-2-[3-(2-methoxy-2-methylpropoxy)pyridin-4-yl]-1,5,6,7-tetrahydro-4H-pyrrolo[3,2-c]pyridin-4-one] | 0.139 nM | 5390 nM | 21 nM | 262 nM |
| COc1c(Cl)cccc1Nc1c(-c2ccncc2OC[C@@H]2CCCO2)[nH]c2c1C(=O)NC(C(F)(F)F)C2 (single isomer, unassigned) [Example 39] | 18.8 nM | > 20000 nM | 786 nM and > 1000 nM | 4120 nM |
| Cc1c(Cl)cccc1Nc1c(-c2ccncc2OC[C@H]2CN(C)CCO2)[nH]c2c1C(=O)N[C@H](C)C2 [Example 106, (6R)-3-(3-chloro-2-methylanilino)-6-methyl-2-(3-{[(2R)-4-methylmorpholin-2-yl]methoxy}pyridin-4-yl)-1,5,6,7-tetrahydro-4H-pyrrolo[3,2-c]pyridin-4-one] | 0.18 nM | 11600 nM | 318 nM | 3020 nM |
| COc1c(Cl)cccc1Nc1c(-c2ccncc2OC[C@@H]2CCCO2)[nH]c2c1C(=O)NCC2CCO (mixture of isomers) [Example 16, 3-(3-chloro-2-methoxyanilino)-7-(2-hydroxyethyl)-2-(3-{[(2S)-oxolan-2-yl]methoxy}pyridin-4-yl)-1,5,6,7-tetrahydro-4H-pyrrolo[3,2-c]pyridin-4-one] | 0.413 nM | > 20000 nM | 63.8 nM | 644 nM |
| COc1c(Cl)cccc1Nc1c(-c2ccncc2OC[C@@H]2CN(C)CCO2)[nH]c2c1C(=O)NC1(CC1)C2 [Example 112, 3′-(3-chloro-2-methoxyanilino)-2′-(3-{[(2S)-4-methylmorpholin-2-yl]methoxy}pyridin-4-yl)-1′,7′-dihydrospiro[cyclopropane-1,6′-pyrrolo[3,2-c]pyridin]-4′(5′H)-one] | 0.193 nM | 7830 nM | 20.4 nM | 553 nM |
| COc1c(Cl)cccc1Nc1c(-c2ccncc2OC[C@@H]2CCCO2)[nH]c2c1C(=O)N[C@H](C)C2 (single isomer, unassigned) [Example 5] | 0.125 nM | 9700 nM | 20.2 nM | 331 nM |
| Cc1c(Cl)cccc1Nc1c(-c2ccncc2OCC2COC(C)(C)CO2)[nH]c2c1C(=O)NCC2C (centres unmarked) [Example 62, 3-(3-chloro-2-methyl-anilino)-2-[3-[(5,5-dimethyl-1,4-dioxan-2-yl)methoxy]-4-pyridyl]-7-methyl-1,5,6,7-tetrahydropyrrolo[3,2-c]pyridin-4-one] | 0.329 nM | 8030 nM | 52.6 nM | 1100 nM |
| COc1c(Cl)cccc1Nc1c(-c2ccncc2OCC2COC(C)(C)CO2)[nH]c2c1C(=O)NC1(CCC1)C2 (single isomer, unassigned) [Example 130, 3′-(3-chloro-2-methoxyanilino)-2′-{3-[(5,5-dimethyl-1,4-dioxan-2-yl)methoxy]pyridin-4-yl}-1′,7′-dihydrospiro[cyclobutane-1,6′-pyrrolo[3,2-c]pyridin]-4′(5′H)-one] | 0.256 nM | 768 nM | 8.01 nM | 418 nM |
| COc1c(Cl)cccc1Nc1c(-c2ccncc2OC[C@@H]2CCCO2)[nH]c2c1C(=O)N[C@@H](C)C2 (single isomer, unassigned) [Example 4] | 0.113 nM | 3010 nM | 95.3 nM | 883 nM |
| COc1c(Cl)cccc1Nc1c(-c2ccncc2OCC2COCCO2)[nH]c2c1C(=O)N[C@H](C)C2 (mixture of isomers) [Example 24, (6R)-3-(3-chloro-2-methoxy-anilino)-2-[3-(1,4-dioxan-2-ylmethoxy)-4-pyridyl]-6-methyl-1,5,6,7-tetrahydropyrrolo[3,2-c]pyridin-4-one] | 0.111 nM and <0.0725 nM | 3480 nM | 20.8 nM | 500 nM |
| COc1c(Cl)cccc1Nc1c(-c2ccncc2OC[C@@H]2CCCO2)[nH]c2c1C(=O)NCC2CC=C(F)F (single isomer, unassigned) [Example 101] | 0.553 nM | > 20000 nM | 42.1 nM | 603 nM |
| COCC(C)Oc1cnccc1-c1[nH]c2c(c1Nc1cccc(Cl)c1OC)C(=O)N[C@H](C)C2 (single isomer, unassigned) [Example 42] | 0.213 nM | 8810 nM | 15.3 nM | 531 nM |
| Cc1c(Cl)cccc1Nc1c(-c2ccncc2OCC2CCCCO2)[nH]c2c1C(=O)NCC2C (single isomer, unassigned) [Example 118, 3-(3-chloro-2-methyl-anilino)-7-methyl-2-[3-(tetrahydropyran-2-ylmethoxy)-4-pyridyl]-1,5,6,7-tetrahydropyrrolo[3,2-c]pyridin-4-one] | 0.431 nM | > 20000 nM and 19400 nM | 22.3 nM | 938 nM |
| COc1c(Cl)cccc1Nc1c(-c2ccncc2OCC2COCCO2)[nH]c2c1C(=O)N[C@@H]1CCC[C@H]21 (single isomer, unassigned) [Example 54] | 0.198 nM | 6190 nM | 42.4 nM | 675 nM |
| COc1c(Cl)cccc1Nc1c(-c2ccncc2OCC(C)(C)OC)[nH]c2c1C(=O)N[C@@H](C)C2 [Example 2, (6S)-3-(3-chloro-2-methoxyanilino)-2-[3-(2-methoxy-2-methylpropoxy)pyridin-4-yl]-6-methyl-1,5,6,7-tetrahydro-4H-pyrrolo[3,2-c]pyridin-4-one] | 0.235 nM | 393 nM | 64.6 nM | 575 nM |
| COCC(C)Oc1cnccc1-c1[nH]c2c(c1Nc1cccc(Cl)c1OC)C(=O)N[C@H](C)C2 (mixture of isomers) [Example 41, (6R)-3-(3-chloro-2-methoxy-anilino)-2-{3-[(1-methoxypropan-2-yl)oxy]-4-pyridyl}-6-methyl-1,5,6,7-tetrahydropyrrolo[3,2-c]pyridin-4-one] | 0.178 nM | 17000 nM | 39.8 nM | 479 nM |
| COc1c(Cl)cccc1Nc1c(-c2ccncc2OC[C@@H]2CCCO2)[nH]c2c1C(=O)NCC2C (single isomer, unassigned) [Example 32] |  | 3640 nM | 52.7 nM | 737 nM |
| COc1c(Cl)cccc1Nc1c(-c2ccncc2OC[C@@H]2COCCN2C)[nH]c2c1C(=O)NCC2CCO (single isomer, unassigned) [Example 115] | 0.456 nM | 13200 nM |  | 5420 nM |
